Where two headings read alike, the source gives them in different places.
Key:
C. albicans R303 = test: mouse candidiasis infection model, IP administration, kidney fungal burden; format: in vivo; details: for log reduction at 0.5 mg/kg / log reduction at 1.5 mg/kg / log reduction at 4.5 mg/kg: Candida albicans, R303, ip, 24 h, read-out: Difference from 24-h control; for Mean log10 CFU/kidneys (±SEM): kidneys 24 h after infection; for overall performance in reducing C. albicans CFUs in the kidneys of the mice: conclusion over all runs
Protocol: The objective of these studies was to evaluate the efficacy of test compounds in the mouse candidiasis infection model. Amounts of test articles are uncorrected.
The strain, C. albicans R303 was transferred from frozen storage onto Sabauroud dextrose agar (SDA) plates and grown for ˜24 hr at 35° C. The inoculum was prepared by transferring colonies from the plate to phosphate buffered saline (PBS) and the concentration adjusted to approximately 10^6 CFU/mL with the aid of a spectrophotometer. The stock was diluted 1:9 to prepare the inoculum. Prior to each run the concentration was verified using the dilution plate count method.
Female CD-1 mice were used in this study. The animals were approximately seven-weeks-old at the start of the study and weighed about 15-30 g.
Mice were made neutropenic with IP injections of cyclophosphamide (150 mg/kg in 10 mL/kg) at 4 and 1 day before inoculation. Each animal was inoculated with the appropriate concentration by injecting 0.1 mL of inoculum into a tail vein. The test compounds were administered IP at 2 hr after infection.
In a typical procedure, the kidneys were collected from four mice in control group 1 (untreated) at 2 hr after infection, and from another four mice in control group 2 (untreated) at 24 hr after infection. Kidneys were removed aseptically from each mouse and were combined in a sterile tube. An aliquot (2 mL) of sterile PBS was added to each tube and the contents homogenized with a tissue homogenizer (Polytron 3100). Serial dilutions of the tissue homogenates were conducted and 0.1 mL aliquots were spread on SDA plates and the plates incubated at 35° C. overnight. The CFU/kidneys were determined from colony counts. Data were analyzed using one-way ANOVA with either the Tukey-Kramer Multiple Comparisons Test or Dunnett Test (GraphPad InStat version 3.06, GraphPad Software, San Diego, Calif.).
The data reported below are the average of four mice. Each run included a separate control and each is tabulated separately.

[1] = Pharmacokinetics in beagle dogs, intravenous; format: in vivo; details: for Vd / half-life: dog
Protocol: The test articles were administered to beagle dogs weighing approximately 6-10 kg. Each test article was dosed at 1.4 mg/kg in aqueous saline (with or without 0.5% Tween) over course of 1-10 minutes. […] The dogs were fasted at least 12 hours prior to each dosing and offered food after the 4-hour blood sample was taken; water was withheld for 1 hour prior to and 4 hours following each dosing event. The dose for each animal was based on its most recent body weight. The test article was injected intravenously via a catheter placed in the cephalic vein as a slow bolus.
Blood was collected via the jugular vein. All blood samples (˜1 mL each) were collected into K3EDTA tubes. Following blood collection, the samples were immediately inverted several times and were held on wet ice pending centrifugation. The samples were centrifuged within ˜30 minutes of collection under refrigeration (˜5° C. for ˜10 minutes at ˜2000 g) to obtain plasma. The plasma was frozen immediately on dry ice after separation. The plasma samples were stored at approximately −70° C. until analysis.
Plasma (100 μL) was precipitated with 400 μL of 0.1% formic acid in acetonitrile containing the internal standard (100 ng/mL pneumocandin). The samples were then capped and vortexed for about 30 seconds followed by centrifugation at 14,000 rpm at room temperature for 10 minutes. Following centrifugation 200 μL of supernatant was transferred to plastic autosampler vials containing 200 μL of 0.1% formic acid in water and vortexed. Samples were then analyzed by LCMSMS.
All pharmacokinetic calculations were performed using WinNonlin version 4.1 (Pharsight Corp) by noncompartmental analysis.

| SMILES | overall performance in reducing C. albicans CFUs in the kidneys of the mice (C. albicans R303) | log reduction at 0.5 mg/kg (C. albicans R303; Fourth run, IP 0.5 mg/kg) | log reduction at 1.5 mg/kg (C. albicans R303; Fourth run, IP 1.5 mg/kg) | Mean log10 CFU/kidneys (±SEM) (C. albicans R303; Fourth run, IP 0.5 mg/kg) [log10 CFU/kidneys] | Mean log10 CFU/kidneys (±SEM) (C. albicans R303; Fourth run, IP 1.5 mg/kg) [log10 CFU/kidneys] | log reduction at 0.5 mg/kg (C. albicans R303; Third run, IP 0.5 mg/kg) | log reduction at 1.5 mg/kg (C. albicans R303; Third run, IP 1.5 mg/kg) | log reduction at 4.5 mg/kg (C. albicans R303; Third run, IP 4.5 mg/kg) | Mean log10 CFU/kidneys (±SEM) (C. albicans R303; Third run, IP 0.5 mg/kg) [log10 CFU/kidneys] | Mean log10 CFU/kidneys (±SEM) (C. albicans R303; Third run, IP 1.5 mg/kg) [log10 CFU/kidneys] | Mean log10 CFU/kidneys (±SEM) (C. albicans R303; Third run, IP 4.5 mg/kg) [log10 CFU/kidneys] | also measured |
| --- | --- | --- | --- | --- | --- | --- | --- | --- | --- | --- | --- | --- |
| CCCCCOc1ccc(-c2ccc(-c3ccc(C(=O)N[C@H]4C[C@@H](O)C(OCCOCCN)NC(=O)C5[C@@H](O)[C@@H](C)CN5C(=O)C([C@@H](C)O)NC(=O)C([C@H](O)[C@@H](O)c5ccc(O)cc5)NC(=O)C5C[C@@H](O)CN5C(=O)C([C@@H](C)O)NC4=O)cc3)cc2)cc1 (stereo partly drawn) [compound 5] | performed strongly | – | – | – | – | – | – | – | – | – | – | log reduction at 0.5 mg/kg (C. albicans R303; Second run, IP 0.5 mg/kg): 1.22; log reduction at 1.5 mg/kg (C. albicans R303; Second run, IP 1.5 mg/kg): 4.15; log reduction at 4.5 mg/kg (C. albicans R303; Second run, IP 4.5 mg/kg): 4.87; Mean log10 CFU/kidneys (±SEM) (C. albicans R303; Second run, IP 0.5 mg/kg): 3.65 ± 0.10 log10 CFU/kidneys; Mean log10 CFU/kidneys (±SEM) (C. albicans R303; Second run, IP 1.5 mg/kg): 0.73 ± 0.42 log10 CFU/kidneys; Mean log10 CFU/kidneys (±SEM) (C. albicans R303; Second run, IP 4.5 mg/kg): 0.00 ± 0.00 log10 CFU/kidneys; Vd ([1]; beagle, in vivo, iv, 1.4 mg/kg): 0.627 ± 0.0139 L/kg; half-life ([1]; beagle, in vivo, iv, 1.4 mg/kg): 33.7 ± 3.28 h |
| CCCCCOc1ccc(-c2ccc(-c3ccc(C(=O)N[C@H]4C[C@@H](O)C(NCCOCCOCCOCCN)NC(=O)C5[C@@H](O)[C@@H](C)CN5C(=O)C([C@@H](C)O)NC(=O)C([C@H](O)[C@@H](O)c5ccc(O)cc5)NC(=O)C5C[C@@H](O)CC5C(=O)C([C@@H](C)O)NC4=O)cc3)cc2)cc1 (stereo partly drawn) [compound 14] | performed poorly | 0.37 | 0.31 | 4.74 ± 0.17 | 4.80 ± 0.34 | – | – | – | – | – | – | – |
| CCCCCOc1ccc(-c2ccc(-c3ccc(C(=O)N[C@H]4C[C@@H](O)C(NCCN)NC(=O)C5[C@@H](O)[C@@H](C)CN5C(=O)C([C@@H](C)O)NC(=O)C([C@H](O)[C@@H](O)c5ccc(O)cc5)NC(=O)C5C[C@@H](O)CC5C(=O)C([C@@H](C)O)NC4=O)cc3)cc2)cc1 (stereo partly drawn) [compound 15] | performed strongly | 3.01 | 3.81 | 2.09 ± 0.16 | 1.29 ± 0.18 | – | – | – | – | – | – | log reduction at 0.5 mg/kg (C. albicans R303; Second run, IP 0.5 mg/kg): 3.63; log reduction at 1.5 mg/kg (C. albicans R303; Second run, IP 1.5 mg/kg): 3.91; log reduction at 4.5 mg/kg (C. albicans R303; Second run, IP 4.5 mg/kg): 4.15; Mean log10 CFU/kidneys (±SEM) (C. albicans R303; Second run, IP 0.5 mg/kg): 1.25 ± 0.45 log10 CFU/kidneys; Mean log10 CFU/kidneys (±SEM) (C. albicans R303; Second run, IP 1.5 mg/kg): 0.96 ± 0.57 log10 CFU/kidneys; Mean log10 CFU/kidneys (±SEM) (C. albicans R303; Second run, IP 4.5 mg/kg): 0.73 ± 0.42 log10 CFU/kidneys |
| CCCCCOc1ccc(-c2ccc(-c3ccc(C(=O)N[C@H]4C[C@@H](O)C(NCCNCCN)NC(=O)C5[C@@H](O)[C@@H](C)CN5C(=O)C([C@@H](C)O)NC(=O)C([C@H](O)[C@@H](O)c5ccc(O)cc5)NC(=O)C5C[C@@H](O)CC5C(=O)C([C@@H](C)O)NC4=O)cc3)cc2)cc1 (stereo partly drawn) [compound 17] | performed strongly | 1.64 | 3.91 | 3.46 ± 0.06 | 1.19 ± 0.12 | – | – | – | – | – | – | – |
| CCCCCOc1ccc(-c2ccc(-c3ccc(C(=O)N[C@H]4C[C@@H](O)C(NCCNCCO)NC(=O)C5[C@@H](O)[C@@H](C)CN5C(=O)C([C@@H](C)O)NC(=O)C([C@H](O)[C@@H](O)c5ccc(O)cc5)NC(=O)C5C[C@@H](O)CC5C(=O)C([C@@H](C)O)NC4=O)cc3)cc2)cc1 (stereo partly drawn) [compound 18] | performed strongly | 2.56 | 3.95 | 2.54 ± 0.17 | 1.15 ± 0.09 | – | – | – | – | – | – | CI ([1]; 1.4 mg/kg intravenous slow bolus, mean ± SEM, n = 4 beagle dogs): 0.377 ± 0.018 mL/min/kg; half-life ([1]; plasma, 1.4 mg/kg intravenous slow bolus, mean ± SEM, n = 4 beagle dogs, read-out: T ½ (converted)): 21 ± 1.16 h; Vd ([1]; plasma, 1.4 mg/kg intravenous slow bolus, mean ± SEM, n = 4 beagle dogs, read-out: Vz): 0.687 ± 0.0584 L/kg |
| CCC(C)CC(C)CCCCCCCCC(=O)N[C@H]1C[C@@H](O)C(NCCOCCOCCN)NC(=O)C2[C@@H](O)CCN2C(=O)C([C@H](O)CCN)NC(=O)C([C@H](O)[C@@H](O)c2ccc(O)cc2)NC(=O)C2C[C@@H](O)CC2C(=O)C([C@@H](C)O)NC1=O (stereo partly drawn) [compound 19] | performed strongly | – | – | – | – | 2.19 | 3.47 | 4.03 | 3.01 ± 0.07 | 1.74 ± 0.18 | 1.17 ± 0.40 | – |
| CCC(C)CC(C)CCCCCCCCC(=O)N[C@H]1C[C@@H](O)C(NCCOCCN)NC(=O)C2[C@@H](O)CCN2C(=O)C([C@H](O)CCN)NC(=O)C([C@H](O)[C@@H](O)c2ccc(O)cc2)NC(=O)C2C[C@@H](O)CC2C(=O)C([C@@H](C)O)NC1=O (stereo partly drawn) [compound 20] | performed strongly | – | – | – | – | 3.25 | 4.48 | 3.75 | 1.96 ± 0.18 | 0.73 ± 0.42 | 1.45 ± 0.09 | – |
| CCC(C)CC(C)CCCCCCCCC(=O)N[C@H]1C[C@@H](O)C(NCCNCCO)NC(=O)C2[C@@H](O)CCN2C(=O)C([C@H](O)CCN)NC(=O)C([C@H](O)[C@@H](O)c2ccc(O)cc2)NC(=O)C2C[C@@H](O)CC2C(=O)C([C@@H](C)O)NC1=O (stereo partly drawn) [compound 21] | performed strongly | – | – | – | – | 3.63 | 4.48 | 4.03 | 1.57 ± 0.16 | 0.73 ± 0.42 | 1.17 ± 0.40 | – |
| CCC(C)CC(C)CCCCCCCCC(=O)N[C@H]1C[C@@H](O)C(NCCNCCN)NC(=O)C2[C@@H](O)CCN2C(=O)C([C@H](O)CCN)NC(=O)C([C@H](O)[C@@H](O)c2ccc(O)cc2)NC(=O)C2C[C@@H](O)CC2C(=O)C([C@@H](C)O)NC1=O (stereo partly drawn) [compound 22] | performed strongly | – | – | – | – | 3.56 | 5.2 | 4.55 | 1.65 ± 0.16 | 0.00 ± 0.00 | 0.65 ± 0.38 | – |

— patent US9217014B2, “Antifungal agents and uses thereof” (Cidara Therapeutics, Inc., priority 2011, dated 2015)
